Drawing on US20140243286A1, “BROMODOMAIN LIGANDS CAPABLE OF DIMERIZING IN AN AQUEOUS SOLUTION, AND METHODS OF USING SAME” (Coferon, Inc., priority 2011, published 2014), this text covers melting point and IC50 for 17 compounds.

One series deals with BRD3 (Homo sapiens, UniProt Q15059). The series is described as follows: Fluorescence anisotropy (FA) binding assay, BRD3. The protocol: (§1) Fluorescence Anisotropy (FA) Binding Assays.
(§2) FA assays were performed as described in Chung et al., J. Med Chem., 2011 54(11): 3827-38 except that protein concentrations were 125 nM and plates were read on a Spectramax M5 plate reader.

A further series deals with BRD4 (Homo sapiens, UniProt O60885). Briefly: Fluorescence anisotropy (FA) binding assay, BRD4. The protocol: as §1, §2
A further series addresses BRD2 (Homo sapiens, UniProt P25440). Briefly: Fluorescence anisotropy (FA) binding assay, BRD2. The method, then:
as §1, §2

Another series deals with bromodomain. The series is described as follows: TR-FRET assay. Particulars: BRD-S monomers; based on monomer concentration; read-out: IC50 range (based on monomer concentration), Group (FRET assay). Format: binding. The method, then: TR-FRET assays were performed as described in Chung et al, J. Med Chem., 2011 54(11): 3827-38 except that FRET was measured on a Spectramax M5 plate reader.

The mark [1] stands for this setting: BRD3, protein 125 nM, read-out: IC50 range (FA assay) BRD3, BRD-N monomers.
The mark [2] stands for this setting: BRD4, protein 125 nM, read-out: IC50 range (FA assay) BRD4, BRD-N monomers.
Where [3] appears, read: BRD2, protein 125 nM, read-out: IC50 range (FA assay) BRD2, BRD-N monomers.

Molecules are shown by their SMILES. Read-outs that look alike come from different tables or passages of the source.

Chain of BRD2 (P25440 whole entry): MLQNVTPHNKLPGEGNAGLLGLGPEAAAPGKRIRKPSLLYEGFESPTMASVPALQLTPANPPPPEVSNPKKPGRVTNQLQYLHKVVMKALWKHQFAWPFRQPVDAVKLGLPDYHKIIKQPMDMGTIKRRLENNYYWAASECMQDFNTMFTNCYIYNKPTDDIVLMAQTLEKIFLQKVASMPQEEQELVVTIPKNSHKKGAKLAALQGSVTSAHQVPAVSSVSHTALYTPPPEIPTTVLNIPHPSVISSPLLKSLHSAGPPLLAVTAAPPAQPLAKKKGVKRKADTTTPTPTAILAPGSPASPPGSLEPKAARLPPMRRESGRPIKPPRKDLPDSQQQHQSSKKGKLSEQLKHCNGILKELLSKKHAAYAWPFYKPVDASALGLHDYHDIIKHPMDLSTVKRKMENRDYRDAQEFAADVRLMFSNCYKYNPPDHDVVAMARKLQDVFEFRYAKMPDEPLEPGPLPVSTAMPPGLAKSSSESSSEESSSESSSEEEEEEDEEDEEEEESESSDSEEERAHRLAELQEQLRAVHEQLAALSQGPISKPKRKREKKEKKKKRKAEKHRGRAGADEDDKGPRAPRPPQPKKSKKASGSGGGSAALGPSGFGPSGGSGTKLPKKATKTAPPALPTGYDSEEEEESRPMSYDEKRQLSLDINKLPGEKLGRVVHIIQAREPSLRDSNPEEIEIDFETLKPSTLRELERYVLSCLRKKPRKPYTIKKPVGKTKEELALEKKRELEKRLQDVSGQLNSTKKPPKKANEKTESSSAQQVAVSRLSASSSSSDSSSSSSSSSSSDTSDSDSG
Chain of BRD3 (Q15059 whole entry): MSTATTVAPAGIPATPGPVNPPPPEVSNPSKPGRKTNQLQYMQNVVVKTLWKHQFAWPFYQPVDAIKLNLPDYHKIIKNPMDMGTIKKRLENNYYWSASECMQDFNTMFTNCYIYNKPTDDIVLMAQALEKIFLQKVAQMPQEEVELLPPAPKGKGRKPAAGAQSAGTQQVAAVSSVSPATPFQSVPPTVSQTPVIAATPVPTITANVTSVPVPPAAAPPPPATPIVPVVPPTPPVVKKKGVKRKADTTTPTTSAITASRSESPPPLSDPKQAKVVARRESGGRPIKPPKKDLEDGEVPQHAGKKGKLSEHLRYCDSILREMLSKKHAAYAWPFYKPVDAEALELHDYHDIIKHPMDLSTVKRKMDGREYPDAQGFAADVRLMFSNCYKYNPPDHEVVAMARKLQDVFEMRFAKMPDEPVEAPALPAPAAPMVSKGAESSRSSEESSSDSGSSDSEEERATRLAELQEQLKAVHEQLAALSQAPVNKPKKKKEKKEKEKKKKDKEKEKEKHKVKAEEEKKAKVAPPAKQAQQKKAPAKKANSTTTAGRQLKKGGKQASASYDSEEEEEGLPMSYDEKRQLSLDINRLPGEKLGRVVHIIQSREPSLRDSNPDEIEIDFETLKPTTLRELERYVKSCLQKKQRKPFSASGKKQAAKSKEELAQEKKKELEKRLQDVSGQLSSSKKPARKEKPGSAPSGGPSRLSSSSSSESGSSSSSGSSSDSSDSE

`CCNC(=O)C[C@@H]1N=C(c2ccc(Cl)cc2)c2cc(O)ccc2-n2c(C)nnc21` registered a melting point of 180 to 182 °C.

As for `COc1ccc2c(c1)C(c1ccc(Cl)cc1)=N[C@@H](CC(=O)NCc1cccc(O)c1O)c1nnc(C)n1-2` [BRD-N-11, (S)-2-(6-(4-chlorophenyl)-8-methoxy-1-methyl-4H-benzo[f][1,2,4]triazolo[4,3-a][1,4]diazepin-4-yl)-N-(2,3-dihydroxybenzyl)acetamide], the IC50 at BRD3 (setting [1]), on BRD4 (setting [2]) and at BRD2 (setting [3]) was 50 to 1000 nM in each case.

In the case of `COc1ccc2c(c1)C(c1ccc(Cl)cc1)=N[C@@H](CC(=O)NCCc1cccc(O)c1O)c1nnc(C)n1-2` [BRD-N-12, (S)-2-(6-(4-chlorophenyl)-8-methoxy-1-methyl-4H-benzo[f][1,2,4]triazolo[4,3-a][1,4]diazepin-4-yl)-N-(2,3-dihydroxyphenethyl)acetamide], the IC50 at BRD3 (setting [1]), at BRD4 (setting [2]) and at BRD2 (setting [3]) was 50 to 1000 nM in each case.

Consider `CCNC(=O)C[C@@H]1N=C(c2ccc(Cl)cc2)c2cc(OCC(=O)Nc3ccc(O)c(O)c3)ccc2-n2c(C)nnc21` [BRD-N-16, (S)-2-((6-(4-chlorophenyl)-4-(2-(ethylamino)-2-oxoethyl)-1-methyl-4H-benzo[f][1,2,4]triazolo[4,3-a][1,4]diazepin-8-yl)oxy)-N-(3,4-dihydroxyphenyl)acetamide], for which the IC50 at BRD3 (setting [1]), at BRD4 (setting [2]) and on BRD2 (setting [3]) was 50 to 1000 nM throughout.

Turning to `CCNC(=O)C[C@@H]1N=C(c2ccc(Cl)cc2)c2cc(OCC(=O)Nc3cccc(O)c3O)ccc2-n2c(C)nnc21` [BRD-N-17, (S)-2-((6-(4-chlorophenyl)-4-(2-(ethylamino)-2-oxoethyl)-1-methyl-4H-benzo[f][1,2,4]triazolo[4,3-a][1,4]diazepin-8-yl)oxy)-N-(2,3-dihydroxyphenyl)acetamide], the figures for the IC50 at BRD3 (setting [1]), on BRD4 (setting [2]) and at BRD2 (setting [3]) were 1000 to 30000 nM, 50 to 1000 nM and 50 to 1000 nM, respectively.

Consider `CCNC(=O)C[C@@H]1N=C(c2ccc(Cl)cc2)c2cc(OCCCC(=O)Nc3ccc(O)c(O)c3)ccc2-n2c(C)nnc21` [BRD-N-20, (S)-4-((6-(4-chlorophenyl)-4-(2-(ethylamino)-2-oxoethyl)-1-methyl-4H-benzo[f][1,2,4]triazolo[4,3-a][1,4]diazepin-8-yl)oxy)-N-(3,4-dihydroxyphenyl)butanamide], for which the IC50 at BRD3 (setting [1]), on BRD4 (setting [2]) and on BRD2 (setting [3]) was 50 to 1000 nM each time.

In the case of `CCNC(=O)C[C@@H]1N=C(c2ccc(Cl)cc2)c2cc(OCCCC(=O)Nc3cccc(O)c3O)ccc2-n2c(C)nnc21` [BRD-N-21, (S)-4-((6-(4-chlorophenyl)-4-(2-(ethylamino)-2-oxoethyl)-1-methyl-4H-benzo[f][1,2,4]triazolo[4,3-a][1,4]diazepin-8-yl)oxy)-N-(2,3-dihydroxyphenyl)butanamide], the results for the IC50 at BRD3 (setting [1]), on BRD4 (setting [2]) and on BRD2 (setting [3]) were 50 to 1000 nM, 50 to 1000 nM and 1000 to 30000 nM, respectively.

`CCNC(=O)C[C@@H]1N=C(c2ccc(Cl)cc2)c2cc(OCCCCC(=O)Nc3ccc(O)c(O)c3)ccc2-n2c(C)nnc21` [BRD-N-22, (S)-5-((6-(4-chlorophenyl)-4-(2-(ethylamino)-2-oxoethyl)-1-methyl-4H-benzo[f][1,2,4]triazolo[4,3-a][1,4]diazepin-8-yl)oxy)-N-(3,4-dihydroxyphenyl)pentanamide]: the IC50 at BRD3 (setting [1]), on BRD4 (setting [2]) and at BRD2 (setting [3]) was 50 to 1000 nM in each case.

As to `CCNC(=O)C[C@@H]1N=C(c2ccc(Cl)cc2)c2cc(OCCCCC(=O)Nc3cccc(O)c3O)ccc2-n2c(C)nnc21` [BRD-N-23, (S)-5-((6-(4-chlorophenyl)-4-(2-(ethylamino)-2-oxoethyl)-1-methyl-4H-benzo[f][1,2,4]triazolo[4,3-a][1,4]diazepin-8-yl)oxy)-N-(2,3-dihydroxyphenyl)pentanamide], the IC50 at BRD3, at BRD4 and on BRD2 was 50 to 1000 nM each time.

Take `CCNC(=O)C[C@@H]1N=C(c2ccc(Cl)cc2)c2cc(OCCNC(=O)c3ccc(O)c(O)c3)ccc2-n2c(C)nnc21` [BRD-N-24]: the IC50 on BRD3 (setting [1]) was 50 to 1000 nM; at BRD4 (setting [2]) it was 1000 to 30000 nM; on BRD2 (setting [3]), 50 to 1000 nM.

Turning to `CCNC(=O)C[C@@H]1N=C(c2ccc(Cl)cc2)c2cc(OCCNC(=O)c3cccc(O)c3O)ccc2-n2c(C)nnc21` [BRD-N-25, (S)—N-(2-((6-(4-chlorophenyl)-4-(2-(ethylamino)-2-oxoethyl)-1-methyl-4H-benzo[f][1,2,4]triazolo[4,3-a][1,4]diazepin-8-yl)oxy)ethyl)-2,3-dihydroxybenzamide], the IC50 on BRD3 (setting [1]) fell in the range of 50 to 1000 nM; at BRD4 (setting [2]), 50 to 1000 nM; on BRD2 (setting [3]), 1000 to 30000 nM.

For the compound `CCNC(=O)C[C@@H]1N=C(c2ccc(Cl)cc2)c2cc(OCCCNC(=O)c3ccc(O)c(O)c3)ccc2-n2c(C)nnc21` [BRD-N-26, (S)—N-(3-((6-(4-chlorophenyl)-4-(2-(ethylamino)-2-oxoethyl)-1-methyl-4H-benzo[f][1,2,4]triazolo[4,3-a][1,4]diazepin-8-yl)oxy)propyl)-3,4-dihydroxybenzaamide], the IC50 on BRD3 (setting [1]), on BRD4 (setting [2]) and at BRD2 (setting [3]) was 1000 to 30000 nM throughout.

As for `CCNC(=O)C[C@@H]1N=C(c2ccc(Cl)cc2)c2cc(OCCCNC(=O)c3cccc(O)c3O)ccc2-n2c(C)nnc21` [BRD-N-27, (S)—N-(3-((6-(4-chlorophenyl)-4-(2-(ethylamino)-2-oxoethyl)-1-methyl-4H-benzo[f][1,2,4]triazolo[4,3-a][1,4]diazepin-8-yl)oxy)propyl)-2,3-dihydroxybenzamide], the IC50 on BRD3 (setting [1]) was 50 to 1000 nM; at BRD4 (setting [2]), 50 to 1000 nM; on BRD2 (setting [3]), 1000 to 30000 nM.

For the compound `CCNC(=O)C[C@@H]1N=C(c2ccc(Cl)cc2)c2cc(OCCCCNC(=O)c3ccc(O)c(O)c3)ccc2-n2c(C)nnc21` [BRD-N-28, (S)—N-(4-((6-(4-chlorophenyl)-4-(2-(ethylamino)-2-oxoethyl)-1-methyl-4H-benzo[f][1,2,4]triazolo[4,3-a][1,4]diazepin-8-yl)oxy)butyl)-3,4-dihydroxybenzamide], the IC50 at BRD3 (setting [1]) was in the range of 50 to 1000 nM; on BRD4 (setting [2]), 1000 to 30000 nM; on BRD2 (setting [3]), 1000 to 30000 nM.

`CCNC(=O)C[C@@H]1N=C(c2ccc(Cl)cc2)c2cc(OCCCCNC(=O)c3cccc(O)c3O)ccc2-n2c(C)nnc21` [BRD-N-29, (S)—N-(4-((6-(4-chlorophenyl)-4-(2-(ethylamino)-2-oxoethyl)-1-methyl-4H-benzo[f][1,2,4]triazolo[4,3-a][1,4]diazepin-8-yl)oxy)butyl)-2,3-dihydroxybenzamide]: the IC50 at BRD3 (setting [1]) lay within 1000 to 30000 nM; at BRD4 (setting [2]) it was 1000 to 30000 nM; at BRD2 (setting [3]) it was 50 to 1000 nM.

On to `COc1ccc2c(c1)C(c1ccc(Cl)cc1)=N[C@@H](CC(=O)NCCNC(=O)Cc1ccc(O)c(O)c1)c1nnc(C)n1-2` [BRD-N-30, 2-((4S)-6-(4-chlorophenyl)-8-methoxy-1-methyl-4H-benzo[f][1,2,4]triazolo[4,3-a][1,4]diazepin-4-yl)-N-(2-(2-(3,4-dihydroxyphenyl)acetamido)ethyl)acetamide], for which the IC50 on BRD3 (setting [1]), at BRD4 (setting [2]) and on BRD2 (setting [3]) was 50 to 1000 nM throughout.

Turning to `COc1ccc2c(c1)C(c1ccc(Cl)cc1)=N[C@@H](CC(=O)NCCOc1cccc([Si](C)(C)O)c1)c1nnc(C)n1-2` [BRD-S-10, (S)-2-(6-(4-chlorophenyl)-8-methoxy-1-methyl-4H-benzo[f][1,2,4]triazolo[4,3-a][1,4]diazepin-4-yl)-N-(2-(3-(hydroxydimethylsilyl)phenoxy)ethyl)acetamide], in the series with bromodomain, the IC50 was in the range of 100 to 300 nM.
